Source: article PMC4604124, “In Vitro Characterization of the Pharmacological Properties of the Anti-Cancer Chelator, Bp4eT, and Its Phase I Metabolites” (PLoS ONE, 2015)
Several values for one entry are separate records, joined by “and”; a condition that tells them apart may be missing. Equal values may be shown once.

Tests used:
[1] = Ascorbate oxidation assay (redox activity of iron complexes); assay type: biochemical; conditions: for %Fe 30min: ascorbate oxidation as % of the Fe control (Fe 100%): IBE 0.1, 30 min;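 as to %Fe 30min (ascorbate oxidation, Fe 100%), průměr: IBE 3 means excess free chelator over iron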;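 as to %Fe 30min (ascorbate oxidation, Fe 100%): IBE 3 means excess free chelator over iron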;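 as to %Fe 30min: ascorbate oxidation as % of the Fe control (Fe 100%): IBE 0.1 means iron-binding equivalents with iron in excess over chelator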;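 as to Change of absorbance, odečet 0 (time 0 subtracted), čas 10, průměr: IBE 3 means excess free chelator over 10 µM FeCl3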;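 as to Change of absorbance, odečet 0 (time 0 subtracted), čas 10: IBE 3 means excess free chelator over 10 µM FeCl3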
Procedure: The ascorbate oxidation assay was used to assess the redox activity of the iron complexes of the chelators using an established protocol. In brief, 100 μM ascorbic acid was prepared immediately prior to the experiment and incubated either alone or in the presence of 10 μM FeCl3 in a 50-fold molar excess (500 μM) of citrate and the chelators. Chelators were assayed at iron-binding equivalents (IBE) of 0.1 (excess of iron), 1 (fully coordinated iron—chelator complexes) and 3 (excess of free chelator). […] The decrease of absorbance between the two time points was calculated and expressed as a percentage of control without the chelator.

[2] = tested on: cancer cells; set-up: method as in PMID 17602603, PMID 23074173, PMID 2758414, PMID 20036563; conditions: cited from earlier work
[3] = tested on: MCF-7 cells; assay: Epifluorescence microscopy, triple staining MDC / annexin V-FITC / propidium iodide; assay type: cell-based, human; conditions: Bp4eT 10 or 100 nM 72 h, rapamycin 1 nM 30 min
Procedure: Markers used to assess autophagy/apoptosis/necrosis in MCF-7 cells and changes of lysosomal and mitochondrial morphology were observed using an Eclipse Ti inverted epifluorescence microscope (Nikon, Tokyo, Japan), that was equipped with a cooled digital camera Zyla 5.5 sCMOS (Andor Technology, Belfast, UK), and NIS-Elements C 4.1 software (Laboratory Imaging, Prague, Czech Republic). The MCF-7 cells were seeded in 6-well plates with cover slips on the bottom at a density of 150,000 cells/well and incubated as described above in the presence or absence of 10 or 100 nM Bp4eT.
To assess the mechanism of cellular death after incubation with Bp4eT, triple staining with monodansyl cadaverine (MDC; 50 μM; λex = 390 nm; λem = 455 nm; Sigma-Aldrich), annexin V-FITC (5 μL/mL; λex = 495 nm; λem = 519 nm; Invitrogen, Carlsbad, CA, USA), and propidium iodide (5 μg/mL; λex = 560 nm; λem = 630 nm) was used. MDC is a marker of autophagosomes and lysosomes and results in blue fluorescence. As a positive control for autophagy, MCF-7 cells were incubated with 1 nM rapamycin (Sigma-Aldrich) for 30 min/37°C, which is an established inducer of autophagy. Annexin V has high affinity to phosphatidylserine, which is translocated to the surface of both early- and late-stage apoptotic cells. […]

[4] = sheet IBE 1, time 10, replicates
[5] = sheet IBE 1, time 20, replicates
[6] = sheet IBE 1, time 30, replicates

Compound: CC(=O)N(O)CCCCCNC(=O)CCC(=O)N(O)CCCCCNC(=O)CCC(=O)N(O)CCCCCN [DFO, deferoxamine, reference compound]
- %Fe 30min: ascorbate oxidation as % of the Fe control (Fe 100%) ([1]; mean (průměr)): 95.6%
- %Fe 30min: ascorbate oxidation as % of the Fe control (Fe 100%) ([1]; single wells): 92.32% and 94.84% and 89.62% and 108.6% and 104.8% and 93.48%
- Change of absorbance after subtraction of time 0 (odečet 0) ([1]; IBE 0.1, time 10, mean (průměr)): -0.0289
- Change of absorbance after subtraction of time 0 (odečet 0) ([1]; IBE 0.1, time 20, mean (průměr)): -0.06128
- Change of absorbance after subtraction of time 0 (odečet 0) ([1]; IBE 0.1, time 30, mean (průměr)): -0.09056
- Absorbance (ascorbate, λ = 265 nm) ([1]; IBE 0.1, čas 0 (time 0), mean (průměr)): 0.8374
- Absorbance (ascorbate, λ = 265 nm) ([1]; IBE 0.1, čas 0 (time 0), single wells): 0.8482 and 0.8386 and 0.8297 and 0.8393 and 0.8347 and 0.8423
- Absorbance (ascorbate, λ = 265 nm) ([1]; IBE 0.1, čas 10 (time 10), mean (průměr)): 0.8085
- Absorbance (ascorbate, λ = 265 nm) ([1]; IBE 0.1, čas 10 (time 10), single wells): 0.8014 and 0.8085 and 0.8061 and 0.8115 and 0.8174 and 0.8155
- Absorbance (ascorbate, λ = 265 nm) ([1]; IBE 0.1, čas 20 (time 20), mean (průměr)): 0.7761
- Absorbance (ascorbate, λ = 265 nm) ([1]; IBE 0.1, čas 20 (time 20), single wells): 0.7691 and 0.7765 and 0.7756 and 0.7789 and 0.7837 and 0.7797
- Absorbance (ascorbate, λ = 265 nm) ([1]; IBE 0.1, čas 30 (time 30), mean (průměr)): 0.7468
- Absorbance (ascorbate, λ = 265 nm) ([1]; IBE 0.1, čas 30 (time 30), single wells): 0.7397 and 0.7469 and 0.7473 and 0.7447 and 0.754 and 0.7546
- Ascorbate oxidation, % of the control ([1]; IBE 1): significant (p < 0.001) decrease
- Ascorbate oxidation, % of the control ([1]; IBE 3): significant (p < 0.001) decrease
- %Fe 30min (ascorbate oxidation, Fe = 100%), průměr (mean) ([1]; sheet IBE 1, 30min, Fe 100%, mean): 34.33%
- %Fe 30min (ascorbate oxidation, Fe = 100%), single replicates ([1]; sheet IBE 1, 30min, Fe 100%, replicates): 31.7% and 34.66% and 23.38% and 46.3% and 44.12% and 39.04%
- raw reading at čas 0 (time 0), průměr (mean) ([1]; sheet IBE 1, time 0, mean of 9 readings): 0.8386
- raw reading at čas 0 (time 0), single replicates ([1]; sheet IBE 1, time 0, replicates of 2014-03-24 (two runs) and 2014-03-25): 0.8558 and 0.8596 and 0.828 and 0.8361 and 0.827 and 0.8501
- odečet 0 (reading minus time 0 reading) at čas 10, průměr (mean) ([1]; sheet IBE 1, time 10, mean): -0.01
- raw reading at čas 10 (time 10), průměr (mean) ([1]; sheet IBE 1, time 10, mean of 9 readings): 0.8286
- odečet 0 (reading minus time 0 reading) at čas 10, single replicates [1, 4]: -0.00635 and -0.01167 and -0.00323 and -0.01849 and -0.01895 and -0.01001
- raw reading at čas 10 (time 10), single replicates [1, 4]: 0.8216 and 0.8244 and 0.8238 and 0.8316 and 0.8369 and 0.8496
- odečet 0 (reading minus time 0 reading) at čas 20, průměr (mean) ([1]; sheet IBE 1, time 20, mean): -0.0179
- raw reading at čas 20 (time 20), průměr (mean) ([1]; sheet IBE 1, time 20, mean of 9 readings): 0.8207
- odečet 0 (reading minus time 0 reading) at čas 20, single replicates [1, 5]: -0.01539 and -0.01649 and -0.00893 and -0.03069 and -0.02809 and -0.02068
- raw reading at čas 20 (time 20), single replicates [1, 5]: 0.8126 and 0.8196 and 0.8181 and 0.8194 and 0.8278 and 0.8389
- odečet 0 (reading minus time 0 reading) at čas 30, průměr (mean) ([1]; sheet IBE 1, time 30, mean): -0.0308
- raw reading at čas 30 (time 30), průměr (mean) ([1]; sheet IBE 1, time 30, mean of 9 readings): 0.8078
- odečet 0 (reading minus time 0 reading) at čas 30, single replicates [1, 6]: -0.02739 and -0.02994 and -0.0202 and -0.04369 and -0.04163 and -0.03684
- raw reading at čas 30 (time 30), single replicates [1, 6]: 0.8006 and 0.8061 and 0.8068 and 0.8064 and 0.8142 and 0.8227
- %Fe 30min (ascorbate oxidation, Fe 100%), průměr ([1]; sheet IBE 3, 30min, Fe alone = 100%, mean (průměr) of the 9 replicates): 14.03%
- %Fe 30min (ascorbate oxidation, Fe 100%) ([1]; sheet IBE 3, 30min, Fe alone = 100%, single replicates): 16.83% and 16.2% and 10.25% and 18.5% and 12.77% and 8.453%
- Change of absorbance, odečet 0 (time 0 subtracted), čas 10, průměr ([1]; sheet IBE 3, time 10 minus time 0, mean (průměr)): -0.00229
- Change of absorbance, odečet 0 (time 0 subtracted), čas 10 ([1]; sheet IBE 3, time 10 minus time 0, single replicates): -0.00147 and -0.00159 and -0.00408 and -0.00649 and -0.00197 and 0.00214
- Change of absorbance, odečet 0 (time 0 subtracted), čas 20, průměr ([1]; sheet IBE 3, time 20 minus time 0, mean (průměr)): -0.00588
- Change of absorbance, odečet 0 (time 0 subtracted), čas 20 ([1]; sheet IBE 3, time 20 minus time 0, single replicates): -0.00984 and -0.00475 and -0.00555 and -0.0054 and -0.00607 and -0.00117
- Change of absorbance, odečet 0 (time 0 subtracted), čas 30, průměr ([1]; sheet IBE 3, time 30 minus time 0, mean (průměr)): -0.01297
- Change of absorbance, odečet 0 (time 0 subtracted), čas 30 ([1]; sheet IBE 3, time 30 minus time 0, single replicates): -0.01562 and -0.01504 and -0.00952 and -0.01694 and -0.01169 and -0.00774
- IC50 values against cancer cells [2]: μM range

Compound: CO[C@H]1C[C@@H]2CC[C@@H](C)[C@@](O)(O2)C(=O)C(=O)N2CCCC[C@H]2C(=O)O[C@H]([C@H](C)C[C@@H]2CC[C@@H](O)[C@H](OC)C2)CC(=O)[C@H](C)/C=C(\C)[C@@H](O)[C@@H](OC)C(=O)[C@H](C)C[C@H](C)/C=C/C=C/C=C/1C [rapamycin, reference compound]
- Staining for autophagy/apoptosis/necrosis (MDC, annexin V-FITC, propidium iodide) [3]: enlarged cells with ample granular, cytoplasmic MDC staining
